Assay results: patent US9714245B2, “Carboline compounds usable in the treatment of neurodegenerative diseases” (ALZPROTECT, priority 2013, dated 2017)

What was measured:
AICD = experiment: Quantification of AICD by Western blot in SY5Y-APPWT cells; type: cell-based, Human; conditions: compared to a control with a value of 100
Method: (§1) Quantifications of APP-CTFs and AICD
(§2) After treatment, SY5Y-APP^WT cells were scrapped and lysed in 1× Lysis Buffer (250 mM NaCl, 50 mM Tris, pH 8.8, 5 mM EDTA, 2.5% Triton X-100, 1% Deoxycholate, 0.1% SDS). For the Western blotting, an equal amount of total proteins (20 μg/lane) was loaded on a 16.5% Tris-Tricine or 8-16% Tris-Glycine polyacrylamide gel.
(§3) SDS-polyacrylamide gel electrophoresis (PAGE) was performed using the Criterion™ Tris-Tricine-precast or Bis-Tris-precast criterion gels (Bio-Rad Bioresearch division). Proteins were transferred to a […] nitrocellulose membrane (Hybond, Amersham Biosciences) at 2.5 mA/cm2 per gel using the Criterion™ Blotter system (Amersham Biosciences), according to the manufacturer's instructions. Proteins were reversibly stained with Ponceau Red in order to check the quality of the transfer of protein. The membranes were blocked in 25 mM Tris-HCl pH 8.0, 150 mM NaCl, 0.1% Tween-20 (v/v) and 5% (w/v) of skimmed milk for 30 min. Membranes were incubated overnight at 4° C. with appropriate dilution of the primary antibodies, and were incubated for 1 h at room temperature with secondary antibody. […] Quantifications were calculated with Image J software (NIH) and the data were collected using Excel Software (Microsoft). The loading variations between Western blot lanes were normalized according to the tubulin signal. Quantification of CTFα and AICD were compared to control conditions (considered as 100 in arbitrary units) and are presented for two concentrations of the drug: 1 and 10 μM.

CTFα [1] = experiment: Quantification of APP-CTFα by Western blot in SY5Y-APPWT cells; type: cell-based, Human; conditions: compared to a control with a value of 100
Method: as §1, §2, §3

secreted Aβ1-42 = experiment: Aβ1-42 secretion by APP-transfected neuroblastoma cells (ELISA); type: cell-based; conditions: Homo sapiens, Neuroblastoma cell; SKNSH-SYSY APPWT cells; concentration decreasing secreted Aβ1-42 to 50% of basal amount
Method: Cell Cultures and Transfections to Test Activity on Aβ1-40 and Aβ1-42 Secretion
Human neuroblastoma cell line SKNSH-SYSY (ATCC® Catalog No. CRL-2266™), HEK (ATCC® CRL-1573™) and COS-1 (ATCC® CRL-1650™) cells were maintained in Dulbecco's modified Eagle medium (DMEM, GIBCO BRL) supplemented with 10% fetal calf serum, 2 mM L-glutamine, 1 mM non-essential amino acids, 50 units/ml penicillin/streptomycin (Invitrogen, France) in a 5% CO2 humidified incubator at 37° C. APP695 cDNA was subcloned into eukaryotic expression vector pcDNA3 (Invitrogen), allowing for a G418 (Invitrogen) selection of clones. This APP cDNA coding for the 695 amino acid long isoform was transfected into SKNSH-SYSY cells using the ethyleneimine polymer ExGen 500 (Euromedex) according to the manufacturer's instructions. The cells expressing APP (SKNSH-SYSY APP^WT) were selected by the addition of 200 μg/ml G418 in the cell medium. To quantify AR which released in the cell culture medium, the collected medium was spun at 200×g to eliminate the cell debris. The concentrations of secreted Aâ1-40 and Aβ1-42 were determined using the Human Aβ (1-40) Assay Kit (IBL) or the INNOTEST™ beta-Amyloid (1-42) ELISA Kit (Innogenetics), according to manufacturer's instructions. The results were expressed as IC50, i.e. the concentration able to decrease to 50% the basal amount of secreted Aβ peptide 1-40 and 1-42.

CTFα [2] = experiment: In vivo acute treatment, CTFα in brain tissue; set-up: species or system C57Bl6 mice; conditions: acute p.o. 24 h
Method: Female C57Bl6 mice of 4 month-old were treated p.o. (gavage) with either vehicle (control) or drug at 3; 6; 12.5 and 25 mg/kg (n=6 per group) for 24 h. The product was administered with a disposable Rodent Feeding Tube ECIMED Ref#V0104030 (4 mm×30 mm). After 24 h, mice were sacrificed and their troncal blood was collected and stored at 4° C. Brains were immediately removed to dissect the Frontal Cortex, the Cortex around the Hippocampus and the Hippocampus. These areas were stored at −80° C. until use. Blood was then centrifuged at 2100×g for 5 min. Resulting plasma was used to quantify the circulating drug and brain tissues were used for biochemical determinations (PFC: prefrontal cortex and HIP: hippocampus).

IC50 (secreted Aβ1-42): 2100 nM
Structure (SMILES): CC(C)CN(CCCN1CCN(CCCN2CCc3[nH]c4ccc(F)cc4c3C2)CC1)CC(C)C [Compound 3.1d, N,N-diisobutyl-3-(4-(3-(8-fluoro-1,3,4,5-tetrahydro-1H-pyrido[4,3-b]indol-2-yl)propyl)piperazin-1-yl)propylamine]
AICD (10 μM) (AICD): 84225 arbitrary units
CTFα (10 μM) (CTFα [1]): 1011 arbitrary units
HIP CTFα (6-12.5 mg/kg), first line (CTFα [2]; hippocampus, 6 mg/kg (first of the two doses in the head)): 110
HIP CTFα (6-12.5 mg/kg), second line (CTFα [2]; hippocampus, 12.5 mg/kg (second of the two doses in the head)): 115
PFC CTFα (6-12.5 mg/kg), first line (CTFα [2]; prefrontal cortex, 6 mg/kg (first of the two doses in the head)): 90
PFC CTFα (6-12.5 mg/kg), second line (CTFα [2]; prefrontal cortex, 12.5 mg/kg (second of the two doses in the head)): 90
